Reference: article PMC12304285 (British Journal of Cancer, 2025)
Values joined by “and” are separate entries in the source; they are usually repeats but may differ in a detail not shown here. Equal entries are not always repeated. Where two headings read alike, the source gives them in different places.

Test system: patients with advanced cancer
Procedure: A single dose was administered during Cycle 0 and was followed by a drug washout period lasting 3–7 days. […] If either of these conditions was not met, the cohort would be expanded to a minimum of 3, and up to 6, patients in all subsequent cohorts. A Bayesian adaptive design, using all of the available data and considering the pharmacokinetics (PK) from a minimum of 2 or 3 patients enrolled into each dose cohort, was used from this point. Dose escalation was scheduled to be stopped at the maximum tolerated dose (MTD) (defined as 25% of patients in a cohort experiencing a dose-limiting toxicity [DLT] with the required precision [ratio of upper and lower 95% credible limits <5.0]), the maximum feasible dose (MFD) or the recommended Phase II dose (RP2D). Intra-patient dose escalation was permitted as long as predefined criteria were met, including that the planned next higher dose had to be declared tolerated by the SRC based on assessment of 2–6 evaluable patients.
The starting dose of PLD was 40 mg/m^2 intravenously once every 28 days for a maximum of 6 cycles. PLD dose could be escalated to 50 mg/m^2 or de-escalated to 30 mg/m^2 every 28 days with agreement from the SRC. […] Dose escalation was scheduled to be stopped at the MTD (defined as 30% of patients in a cohort experiencing a DLT with the required precision [ratio of upper and lower 95% credible limits <5.0]). Approximately 30 evaluable patients across five cohorts (n = 3–6 per cohort) were originally planned to provide an estimate of MTD.
Definitions of dose-limiting toxicity
DLTs were evaluated during Cycle 0 and Cycle 1 of treatment. Toxicity was graded according to the National Cancer Institute CTCAE v5.0.
A DLT was defined as an AE that occurs from the first dose of study treatment up to and including Cycle 1, Day 28 (the DLT assessment period) that is assessed as unrelated to the disease, intercurrent illness, or concomitant medications and that, despite optimal therapeutic interventions, meets any of the following criteria:
Haematological Toxicities:
• Grade 4 neutropenia lasting >4 days.
• Grade 4 thrombocytopenia.
• Grade 3 neutropenia (ANC ≥500 to <1000 cells/mm3) of any duration accompanied by fever ≥38.5 °C and/or systemic infection.
• Grade 3 thrombocytopenia (25,000 to <50,000/mm3) with bleeding
Non-haematological toxicities:
• Confirmed laboratory abnormalities
• Nausea or vomiting for more than three consecutive days despite administration of maximal anti-emetic therapy
• Diarrhoea for more than three consecutive days despite administration of maximal anti- […]
• QTc prolongation >500 milliseconds or QTcF prolongation from baseline by 60 milliseconds confirmed on at least two separate ECGs
• Any other toxicity that is greater than at baseline AND is clinically significant and/or […]
AND is judged to be a DLT by the SRC
• Any treatment-related event, including significant dose reductions, omissions or delays, judged to be a DLT by the SRC. Examples may include CTCAE Grade 2 toxicities that are clinically significant and/or unacceptable according to the investigator, toxicities that […]
the administration of study treatment in the subsequent cycle by ≥7 consecutive days DLT will not include the following:
• Transient isolated laboratory abnormalities which are not considered clinically significant and resolve to baseline within 72 hours without any intervention […]
• Toxicity unrelated to treatment e.g., related to the underlying disease or disease-related

Cc1cc2ncnn2cc1Nc1ncc2c(n1)n(C1CCOCC1)c(=O)n2C [AZD7648, 7-Methyl-2-[(7-methyl[1,2,4]triazolo[1,5-a]pyridin-6-yl)amino]-9-(tetrahydro-2H-pyran-4-yl)-7,9-dihydro-8H-purin-8-one]
Any AE leading to death (5 mg BID (n = 1)): 0 n (%) | Any AZD7648-related AE leading to death (5 mg BID (n = 1)): 0 n (%) | Any AE leading to death (5 mg QD (n = 1)): 0 n (%) | Any AZD7648-related AE leading to death (5 mg QD (n = 1)): 0 n (%) | Any AE leading to death (10 mg BID (n = 1)): 0 n (%) | Any AZD7648-related AE leading to death (10 mg BID (n = 1)): 0 n (%) | Any AE leading to death (20 mg BID (n = 1)): 0 n (%) | Any AZD7648-related AE leading to death (20 mg BID (n = 1)): 0 n (%) | Any AE leading to death (40 mg BID (n=3)): 0 n (%) | Any AZD7648-related AE leading to death (40 mg BID (n=3)): 0 n (%) | Any AE leading to death (80 mg BID (n = 4)): 1 (25.0) n (%) | Any AZD7648-related AE leading to death (80 mg BID (n = 4)): 0 n (%) | Any AE leading to death (160 mg BID (n=3)): 0 n (%) | Any AZD7648-related AE leading to death (160 mg BID (n=3)): 0 n (%) | TEAE Anaemia (Any grade): 4 (28.6) n (%) | TEAE Diarrhoea (Any grade): 4 (28.6) n (%) | TEAE Nausea (Any grade): 4 (28.6) n (%) | TEAE Neutropenia (Any grade): 2 (14.3) n (%) | TEAE Urinary tract infection (Any grade): 2 (14.3) n (%) | TEAE Vomiting (Any grade): 4 (28.6) n (%) | Any treatment-related grade 3/4 AE, related to AZD7648 (all dose levels): 4 (28.6) n (%) | Death (all dose levels): 4 (28.6) n (%) | patients with nausea (all dose levels): 28.6% and ~ 30% | patients with neutropenia (all dose levels): 14.3% | patients with vomiting (all dose levels): 28.6% and ~ 30% | Any AE (human, in vivo): 12 (85.7) n (%) | Any DLT (human, in vivo): 1 (7.1) n (%) | Any SAE (human, in vivo): 5 (35.7) n (%) | TEAE Anaemia (human, in vivo): 1 (7.1) n (%) | TEAE Diarrhoea (human, in vivo): 1 (7.1) n (%) | TEAE Nausea (human, in vivo): 0 n (%) | TEAE Neutropenia (human, in vivo): 1 (7.1) n (%) | TEAE Urinary tract infection (human, in vivo): 0 n (%) | TEAE Vomiting (human, in vivo): 0 n (%) | patients with gastrointestinal disorders (human, in vivo): 64.3% | patients who experienced TEAEs (human, in vivo, 2.9 months): 85.7% | patients with abdominal pain (human, in vivo, 2.9 months): ~ 20% | patients with decreased appetite (human, in vivo, 2.9 months): ~ 20% | patients with fatigue (human, in vivo, 2.9 months): ~ 20% | maximum tolerated dose (MTD) (monotherapy, escalation paused at 160 mg BID continuous dosing): an MTD could not be declared | DLT reported (nature) (one patient, AZD7648 160 mg BID): grade 4 increased alanine aminotransferase (ALT) and aspartate aminotransferase (AST)
